In PubChem BioAssay AID256 (DTP/NCI, 2004):
Toxic doses and inconclusive results are not listed. The calls were made as follows: active = survival T/C of 150% or more; inactive = T/C below 125% in these data.

Test system: CD2F1 mice, L1210 leukemia ip, survival T/C
Experiment: NCI In Vivo Anticancer Drug Screen. Data for tumor model L1210 Leukemia (intraperitoneal) in CD2F1 (CDF1) mice
Conditions: endpoint: mean survival time, higher = longer survival
How it was run: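 Compound-dosed mice with transplantable tumor versus matched vehicle controls; endpoint ratio T/C reported.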

Measured: T/C

CC(=O)c1ccc(Br)c([N+](=O)[O-])c1
inactive: dose: 100.0 mg/kg/injection, schedule: Q01DX009 (ip), vehicle: Klucel (hydroxypropylcellulose) (HPC) 102 % of control | dose: 100.0 mg/kg/injection, schedule: Q04DX003 (ip), vehicle: Klucel (hydroxypropylcellulose) (HPC) 96 % of control | dose: 200.0 mg/kg/injection, schedule: Q01DX009 (ip), vehicle: Klucel (hydroxypropylcellulose) (HPC) 98 % of control | dose: 200.0 mg/kg/injection, schedule: Q04DX003 (ip), vehicle: Klucel (hydroxypropylcellulose) (HPC) 100 % of control | dose: 400.0 mg/kg/injection, schedule: Q01DX009 (ip), vehicle: Klucel (hydroxypropylcellulose) (HPC) 102 % of control | dose: 400.0 mg/kg/injection, schedule: Q04DX003 (ip), vehicle: Klucel (hydroxypropylcellulose) (HPC) 105 % of control

Cc1ccc(S(=O)(=O)OC2CC3CC2C2C4C=CC(C4)C32)cc1 (stereo not drawn)
inactive: dose: 50.0 mg/kg/injection, schedule: Q01DX009 (ip), vehicle: saline with Tween-80 101 % of control | dose: 100.0 mg/kg/injection, schedule: Q01DX009 (ip), vehicle: saline with Tween-80 93 % of control | dose: 200.0 mg/kg/injection, schedule: Q01DX009 (ip), vehicle: saline with Tween-80 101 % of control

O=Cc1ccc2ccccc2[n+]1[O-]
inactive: dose: 100.0 mg/kg/injection, schedule: Q04DX003 (ip), vehicle: saline 101 % of control | dose: 200.0 mg/kg/injection, schedule: Q04DX003 (ip), vehicle: saline 100 % of control | dose: 400.0 mg/kg/injection, schedule: Q04DX003 (ip), vehicle: saline 101 % of control

CC(=O)c1ccc(Oc2ccc(/C(C)=N\N=C(N)N)cc2)cc1
inactive: dose: 25.0 mg/kg/injection, schedule: Q04DX003 (ip), vehicle: saline 100 % of control | dose: 50.0 mg/kg/injection, schedule: Q04DX003 (ip), vehicle: saline 108 % of control | dose: 75.0 mg/kg/injection, schedule: Q01DX001 (ip), vehicle: other 100 % of control | dose: 150.0 mg/kg/injection, schedule: Q01DX001 (ip), vehicle: other 112 % of control

CSc1ncnc2nn(C3OC(CO)C(O)C3O)cc12 (stereo not drawn)
inactive: dose: 12.5 mg/kg/injection, schedule: Q01DX005 (ip), vehicle: water 103 % of control | dose: 25.0 mg/kg/injection, schedule: Q01DX005 (ip), vehicle: water 96 % of control | dose: 50.0 mg/kg/injection, schedule: Q01DX005 (ip), vehicle: water 103 % of control | dose: 100.0 mg/kg/injection, schedule: Q01DX005 (ip), vehicle: water 107 % of control | dose: 200.0 mg/kg/injection, schedule: Q01DX005 (ip), vehicle: water 100 % of control

COC(C(OC)N1CCOCC1)N1CCOCC1 (stereo not drawn)
inactive: dose: 100.0 mg/kg/injection, schedule: Q04DX003 (ip), vehicle: saline with Tween-80 89 % of control | dose: 200.0 mg/kg/injection, schedule: Q04DX003 (ip), vehicle: saline with Tween-80 89 % of control

NC(N)=NCCc1ccccc1
inactive: dose: 5.0 mg/kg/injection, schedule: Q01DX009 (ip), vehicle: saline 102 % of control | dose: 5.0 mg/kg/injection, schedule: Q04DX003 (ip), vehicle: saline 92 % of control | dose: 10.0 mg/kg/injection, schedule: Q01DX009 (ip), vehicle: saline 103 % of control | dose: 10.0 mg/kg/injection, schedule: Q04DX003 (ip), vehicle: saline 102 % of control | dose: 20.0 mg/kg/injection, schedule: Q01DX009 (ip), vehicle: saline 96 % of control | dose: 20.0 mg/kg/injection, schedule: Q04DX003 (ip), vehicle: saline 97 % of control

CC1OC(O[C@@H]2C=C3CC[C@@H]4[C@H](CC[C@]5(C)[C@@H](c6ccc(=O)oc6)CC[C@]45O)[C@@]3(C)CC2)C(O)C(O)C1O (stereo partly drawn)
inactive: dose: 1.25 mg/kg/injection, schedule: Q01DX001 (sc), vehicle: steriod suspending solution 101 % of control | dose: 1.25 mg/kg/injection, schedule: Q01DX009 (sc), vehicle: steriod suspending solution 94 % of control | dose: 2.5 mg/kg/injection, schedule: Q01DX001 (sc), vehicle: steriod suspending solution 101 % of control | dose: 2.5 mg/kg/injection, schedule: Q01DX009 (sc), vehicle: steriod suspending solution 97 % of control | dose: 2.5 mg/kg/injection, schedule: Q04DX003 (sc), vehicle: steriod suspending solution 93 % of control | dose: 5.0 mg/kg/injection, schedule: Q01DX001 (sc), vehicle: steriod suspending solution 98 % of control | dose: 5.0 mg/kg/injection, schedule: Q01DX009 (sc), vehicle: steriod suspending solution 95 % of control | dose: 5.0 mg/kg/injection, schedule: Q04DX003 (sc), vehicle: steriod suspending solution 95 % of control | dose: 10.0 mg/kg/injection, schedule: Q01DX001 (sc), vehicle: steriod suspending solution 101 % of control | dose: 10.0 mg/kg/injection, schedule: Q01DX009 (sc), vehicle: steriod suspending solution 95 % of control | dose: 10.0 mg/kg/injection, schedule: Q04DX003 (sc), vehicle: steriod suspending solution 112 % of control | dose: 20.0 mg/kg/injection, schedule: Q01DX001 (sc), vehicle: steriod suspending solution 103 % of control | dose: 20.0 mg/kg/injection, schedule: Q04DX003 (sc), vehicle: steriod suspending solution 101 % of control | dose: 40.0 mg/kg/injection, schedule: Q04DX003 (sc), vehicle: steriod suspending solution 95 % of control
